The source of these data is ChEMBL document CHEMBL4145486, “Design, synthesis and biological evaluation of LX2343 derivatives as neuroprotective agents for the treatment of Alzheimer's disease” (Eur J Med Chem, 2018).

SMILES strings stand for the structures. The source made the active and inactive calls. The rule behind the calls is not given here.

In one series the test system is SH-SY5Y. Nature of the series: Neuroprotective activity against STZ induced cell death of human SH-SY5Y cells after 24 hrs by MTT assay. Type of series: functional, cell-based. On the technique in general: Tetrazolium dyes change colour on reduction, which living cells bring about.
Series [1] addresses Amyloid-beta precursor protein (Homo sapiens) (UniProt P05067). Nature of the series: Inhibition of STZ induced beta amyloid (unknown origin) deposition in HEK293 cells harboring APPSW mutant at 20 uM by ELISA. The series is classed as cell-based. In general terms: ELISA stands for enzyme-linked immunosorbent assay.
Series [2] relates to Mus musculus. Nature of the series: Toxicity in APP1/PS1 transgenic mouse assessed as change in body weight at 15 to 30 mg/kg, ip administered 100 days. Type of series: organism-based. The settings on record: in vivo, 2400 h.
In series [3] the test system is Mus musculus. Nature of the series: Toxicity in APP1/PS1 transgenic mouse assessed as effect on liver function at 15 to 30 mg/kg, ip administered 100 days. Type of series: organism-based. The conditions noted are these: in vivo, 2400 h.
For series [4], the target named is Microtubule-associated protein tau (Homo sapiens) (UniProt P10636). Nature of the series: Inhibition of STZ induced tau hyperphosphorylation at ser396 residues in human SH-SY5Y cells at 20 uM by immunohistochemical assay. The series is classed as cell-based.
Microtubule-associated protein tau (Homo sapiens), sequence (P10636 whole entry): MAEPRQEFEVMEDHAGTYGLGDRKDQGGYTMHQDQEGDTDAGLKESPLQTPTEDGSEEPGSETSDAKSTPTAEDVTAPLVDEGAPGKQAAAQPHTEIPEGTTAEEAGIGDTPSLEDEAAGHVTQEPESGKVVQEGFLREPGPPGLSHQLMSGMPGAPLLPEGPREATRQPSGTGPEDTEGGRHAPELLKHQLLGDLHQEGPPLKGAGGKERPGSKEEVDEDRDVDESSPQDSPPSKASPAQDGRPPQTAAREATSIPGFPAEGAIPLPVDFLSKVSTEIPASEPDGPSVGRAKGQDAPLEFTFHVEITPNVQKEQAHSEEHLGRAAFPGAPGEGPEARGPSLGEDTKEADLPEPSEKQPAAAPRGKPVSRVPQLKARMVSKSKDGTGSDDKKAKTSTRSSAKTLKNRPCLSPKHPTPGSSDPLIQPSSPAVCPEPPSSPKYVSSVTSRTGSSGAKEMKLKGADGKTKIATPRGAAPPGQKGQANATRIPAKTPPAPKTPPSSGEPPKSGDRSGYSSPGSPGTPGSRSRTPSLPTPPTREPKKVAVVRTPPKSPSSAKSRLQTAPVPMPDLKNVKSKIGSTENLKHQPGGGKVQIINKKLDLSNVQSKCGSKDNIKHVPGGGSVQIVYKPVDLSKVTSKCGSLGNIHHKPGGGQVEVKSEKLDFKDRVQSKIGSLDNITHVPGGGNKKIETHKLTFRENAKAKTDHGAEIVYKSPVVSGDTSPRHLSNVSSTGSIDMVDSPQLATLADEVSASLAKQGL
Series [5] deals with Amyloid-beta precursor protein (Homo sapiens) (UniProt P05067). Nature of the series: Inhibition of STZ induced beta amyloid clearance in human SH-SY5Y cells by ELISA. Type of series: cell-based.
Amyloid-beta precursor protein (Homo sapiens), sequence (P05067 whole entry): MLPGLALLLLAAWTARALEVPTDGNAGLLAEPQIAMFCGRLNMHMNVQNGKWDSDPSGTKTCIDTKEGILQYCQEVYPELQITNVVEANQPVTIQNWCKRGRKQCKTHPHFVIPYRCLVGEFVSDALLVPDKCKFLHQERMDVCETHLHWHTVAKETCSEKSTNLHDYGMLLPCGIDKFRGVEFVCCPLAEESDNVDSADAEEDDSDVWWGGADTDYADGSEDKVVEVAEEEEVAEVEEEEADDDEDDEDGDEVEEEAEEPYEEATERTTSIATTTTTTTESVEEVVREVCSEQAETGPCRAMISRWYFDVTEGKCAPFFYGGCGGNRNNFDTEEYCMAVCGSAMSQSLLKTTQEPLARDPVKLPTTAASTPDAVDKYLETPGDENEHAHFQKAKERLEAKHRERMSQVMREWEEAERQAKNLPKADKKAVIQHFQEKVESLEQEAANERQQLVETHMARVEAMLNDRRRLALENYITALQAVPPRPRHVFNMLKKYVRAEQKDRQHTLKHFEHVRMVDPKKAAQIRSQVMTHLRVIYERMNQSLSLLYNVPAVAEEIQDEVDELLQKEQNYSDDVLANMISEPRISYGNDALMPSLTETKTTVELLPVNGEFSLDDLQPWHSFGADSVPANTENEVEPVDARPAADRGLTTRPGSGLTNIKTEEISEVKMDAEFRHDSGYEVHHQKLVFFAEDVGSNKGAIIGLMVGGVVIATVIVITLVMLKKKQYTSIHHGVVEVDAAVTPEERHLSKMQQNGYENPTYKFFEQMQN
Series [6] relates to Mus musculus. Nature of the series: Toxicity in APP1/PS1 transgenic mouse assessed as change in swimming speed at 15 to 30 mg/kg, ip administered 100 days. The settings on record: in vivo, 2400 h. Type of series: organism-based.
Series [7] has as its system Mus musculus. Nature of the series: Antialzheimer activity in APP1/PS1 transgenic mouse assessed as decrease in prolonged path length at 30 mg/kg, ip administered 100 days prior to testing and measured at day 6 post continuous dosing by Morris water maze test. Type of series: functional, organism-based.
For series [8], the system named is Mus musculus. Nature of the series: Antialzheimer activity in APP1/PS1 transgenic mouse assessed as decrease in escape latencies at 30 mg/kg, ip administered 100 days prior to testing and measured at day 6 post continuous dosing by Morris water maze test. The series is classed as functional, organism-based.

Consider `CC12CC3CC(C)(C1)CC(NC(=O)CN(C1CCCCC1)S(=O)(=O)c1ccccc1)(C3)C2`, for which the EC50 (in general, the concentration giving half of the maximal effect) in the series with SH-SY5Y was over 20 µM.

Take `Cc1c(Cl)cccc1N(CC(=O)NC12CC3CC(C)(CC(C)(C3)C1)C2)S(=O)(=O)c1ccccc1`: in the series on SH-SY5Y, the EC50 is over 20 µM.

On to `CC12CC3CC(C)(C1)CC(NC(=O)CN(c1cccc(Cl)c1)S(=O)(=O)c1ccccc1)(C3)C2`, for which, in the series with SH-SY5Y, the concentration for a half-maximal effect (EC50) amounted to 12.3 µM.

Regarding `COc1ccc(NC(=O)CN(c2cc(Cl)ccc2OC)S(=O)(=O)c2ccccc2)cc1`, the EC50 with SH-SY5Y amounted to 16.2 µM.

Regarding `COc1ccc(Cl)cc1N(CC(=O)NC12CC3CC(C)(CC(C)(C3)C1)C2)S(=O)(=O)c1ccccc1`, the inhibition entry in series [1], in [4] and in series [5] was “Active” throughout. Besides, the Activity result in the series on Mus musculus [2], in the series with Mus musculus [3] and in the series on Mus musculus [6] was “Non-Toxic” each time. The outcome in the series on Mus musculus [7] and in the series on Mus musculus [8] was Active. In the series on SH-SY5Y, this compound came in with a 50% effective concentration (EC50) of 0.22 µM.

Take `CCn1ccc2cc(NC(=O)CN(c3cc(Cl)ccc3OC)S(=O)(=O)c3ccccc3)ccc21`: a half-maximal effect in the series with SH-SY5Y (EC50) was put at 2.22 µM.

In the case of `COc1ccc(Cl)cc1N(CC(=O)NC12CC3CC(C)(CC(C)(C3)C1)C2)S(=O)(=O)c1ccc(Cl)cc1`, the EC50 in the series with SH-SY5Y was over 20 µM.

`COc1ccc(Cl)cc1N(CC(=O)NC12CC3CC(C)(CC(C)(C3)C1)C2)S(=O)(=O)c1ccc(C)cc1` yielded an EC50 in the series on SH-SY5Y of over 20 µM.

Compound `COc1ccc(Cl)cc1N(CC(=O)N(C1CCCCC1)C1CCCCC1)S(=O)(=O)c1ccccc1` registered a concentration giving a half-maximal response (EC50) in the series on SH-SY5Y of 14.3 µM.

As to `COc1ccc(Cl)cc1N(CC(=O)Nc1cccc2c1[nH]c1ccccc12)S(=O)(=O)c1ccccc1`, in the series on SH-SY5Y, the EC50 worked out at 6.56 µM.

In the series with SH-SY5Y, `COc1ccc(Cl)cc1N(CC(=O)NC1CCCCC1)S(=O)(=O)c1ccccc1` registered a concentration for a half-maximal effect (EC50) of 17.6 µM.

In the series with SH-SY5Y, `COc1ccccc1NC(=O)CN(c1cc(Cl)ccc1OC)S(=O)(=O)c1ccccc1` displayed a concentration for a half-maximal effect (EC50) of 15.5 µM.

`CCN(CC)C(=O)CN(c1cc(Cl)ccc1OC)S(=O)(=O)c1ccccc1` yielded an EC50 in the series with SH-SY5Y of over 20 µM.

`COc1ccc(Cl)cc1N(CC(=O)NC12CC3CC(C)(CC(C)(C3)C1)C2)C(=O)c1ccccc1` displayed an EC50 with SH-SY5Y of over 20 µM.

In the series on SH-SY5Y, `CC12CC3CC(C)(C1)CC(NC(=O)CN(c1ccccc1)S(=O)(=O)c1ccccc1)(C3)C2` registered an EC50 of over 20 µM.

Turning to `COc1ccc(Cl)cc1N(CC(=O)Nc1ccc2c(c1)c1ccccc1n2C)S(=O)(=O)c1ccccc1`, it took 1.32 µM to reach a half-maximal effect in the series on SH-SY5Y (EC50).

Consider `COc1cccc(NC(=O)CN(c2cc(Cl)ccc2OC)S(=O)(=O)c2ccccc2)c1`, for which, in the series with SH-SY5Y, the midpoint of the response, the EC50, lay at 17.6 µM.

Compound `COc1ccc(Cl)cc1N(CC(=O)Nc1ccc([N+](=O)[O-])cc1)S(=O)(=O)c1ccccc1` came in with a half-maximal effective concentration (EC50) in the series on SH-SY5Y of 8.21 µM.

In the case of `COc1ccc(CNC(=O)CN(c2cc(Cl)ccc2OC)S(=O)(=O)c2ccccc2)cc1`, in the series on SH-SY5Y, the EC50 was over 20 µM.

Compound `CC12CC3CC(C)(C1)CC(NC(=O)CN(c1ccc(Cl)cc1)S(=O)(=O)c1ccccc1)(C3)C2` had an EC50 in the series on SH-SY5Y of over 20 µM.

Turning to `CCn1c2ccccc2c2cc(NC(=O)CN(c3cc(Cl)ccc3OC)S(=O)(=O)c3ccccc3)ccc21`, the inhibition result in [1] and in series [5] was “Active” each time. The concentration giving a half-maximal response (EC50) in the series with SH-SY5Y amounted to 0.25 µM.

For `COc1ccc(Cl)cc1N(CC(=O)Nc1cccc2ccccc12)S(=O)(=O)c1ccccc1`, the EC50 with SH-SY5Y worked out at 17.4 µM.

`COc1ccc(Cl)cc1NC(=O)CN(c1cc(Cl)ccc1OC)S(=O)(=O)c1ccccc1` gave an EC50 in the series on SH-SY5Y of over 20 µM.

Compound `CCCNC(=O)CN(c1cc(Cl)ccc1OC)S(=O)(=O)c1ccccc1` returned a half-maximal effective concentration (EC50) with SH-SY5Y of over 20 µM.

In the series on SH-SY5Y, `CC12CC3CC(C)(C1)CC(NC(=O)CN(c1ccccc1Cl)S(=O)(=O)c1ccccc1)(C3)C2` had a half-maximal effective concentration (EC50) of 16.1 µM.

The compound `COc1ccc(Cl)cc1N(CC(=O)Nc1ccc(Cl)cc1)S(=O)(=O)c1ccccc1` yielded an EC50 in the series on SH-SY5Y of over 20 µM.

Turning to `COc1ccc(Cl)cc1N(CC(=O)Nc1ccc(C(F)(F)F)cc1)S(=O)(=O)c1ccccc1`, the inhibition entry in series [1], in series [4] and in series [5] was “Active” throughout. In the series on SH-SY5Y, this compound registered an EC50 of 3.75 µM.

For the compound `COc1ccc(NC(=O)CN(c2cc(Cl)ccc2OC)S(=O)(=O)c2ccccc2)cc1OC`, the EC50 in the series on SH-SY5Y is over 20 µM.

In turn, `COc1ccc(Cl)cc1N(CC(=O)NC12CC3CC(C)(CC(C)(C3)C1)C2)S(=O)(=O)c1ccc([N+](=O)[O-])cc1` gave an EC50 with SH-SY5Y of over 20 µM.

For the compound `COc1ccc(Cl)cc1N(CC(=O)Nc1ccc2[nH]c3ccccc3c2c1)S(=O)(=O)c1ccccc1`, the EC50 in the series on SH-SY5Y came out at 2.75 µM.

On to `COc1ccc(Cl)cc1N(CC(=O)N1CCCCC1)S(=O)(=O)c1ccccc1`, for which, in series [1], the inhibition entry was “Active”. For the same compound, the response in the series on SH-SY5Y was half-maximal at 14.5 µM (EC50).

Turning to `COc1ccc(Cl)cc1N(CC(=O)Nc1cccc2c3ccccc3n(C)c12)S(=O)(=O)c1ccccc1`, the inhibition result in series [1] and in [5] was “Active” throughout. This compound displayed a concentration giving a half-maximal response (EC50) in the series on SH-SY5Y of 3.18 µM.

The compound `COc1ccc(Cl)cc1N(CC(=O)Nc1ccccc1)S(=O)(=O)c1ccccc1` came in with an EC50 with SH-SY5Y of over 20 µM.

On to `COc1ccc(Cl)cc1N(CC(=O)N1CCc2ccccc21)S(=O)(=O)c1ccccc1`, for which the EC50 in the series with SH-SY5Y was over 20 µM.

`Cc1ccc(N(CC(=O)NC23CC4CC(C)(CC(C)(C4)C2)C3)S(=O)(=O)c2ccccc2)cc1Cl`: in the series on SH-SY5Y, the concentration for a half-maximal effect (EC50) was 8.86 µM.
